In US8778621B2, “Phosphodiesterase 4D7 as marker for malignant, hormone-sensitive prostate cancer” (Koninklijke Philips N.V., priority 2009, dated 2014):
Where two headings read alike, the source gives them in different places.

Legend:
[1] = in vivo; cited from earlier work
[2] = target: cAMP phosphodiesterase (PDE4); settings: cited from earlier work
[3] = tested on: heart PDE3; settings: cited from earlier work
[4] = target: T1, platelet PDE-V (Homo sapiens, UniProt O76074); settings: cited from earlier work
T1 construct: from tissue; host or cells: platelets

[5] = tested on: lung PDE1; settings: cited from earlier work
[6] = tested on: human lung PDE4; settings: cited from earlier work
[7] = target: T2, lung PDE2; settings: cited from earlier work
T2 construct: from tissue; host or cells: lung
T2 sequence (O00408 whole entry): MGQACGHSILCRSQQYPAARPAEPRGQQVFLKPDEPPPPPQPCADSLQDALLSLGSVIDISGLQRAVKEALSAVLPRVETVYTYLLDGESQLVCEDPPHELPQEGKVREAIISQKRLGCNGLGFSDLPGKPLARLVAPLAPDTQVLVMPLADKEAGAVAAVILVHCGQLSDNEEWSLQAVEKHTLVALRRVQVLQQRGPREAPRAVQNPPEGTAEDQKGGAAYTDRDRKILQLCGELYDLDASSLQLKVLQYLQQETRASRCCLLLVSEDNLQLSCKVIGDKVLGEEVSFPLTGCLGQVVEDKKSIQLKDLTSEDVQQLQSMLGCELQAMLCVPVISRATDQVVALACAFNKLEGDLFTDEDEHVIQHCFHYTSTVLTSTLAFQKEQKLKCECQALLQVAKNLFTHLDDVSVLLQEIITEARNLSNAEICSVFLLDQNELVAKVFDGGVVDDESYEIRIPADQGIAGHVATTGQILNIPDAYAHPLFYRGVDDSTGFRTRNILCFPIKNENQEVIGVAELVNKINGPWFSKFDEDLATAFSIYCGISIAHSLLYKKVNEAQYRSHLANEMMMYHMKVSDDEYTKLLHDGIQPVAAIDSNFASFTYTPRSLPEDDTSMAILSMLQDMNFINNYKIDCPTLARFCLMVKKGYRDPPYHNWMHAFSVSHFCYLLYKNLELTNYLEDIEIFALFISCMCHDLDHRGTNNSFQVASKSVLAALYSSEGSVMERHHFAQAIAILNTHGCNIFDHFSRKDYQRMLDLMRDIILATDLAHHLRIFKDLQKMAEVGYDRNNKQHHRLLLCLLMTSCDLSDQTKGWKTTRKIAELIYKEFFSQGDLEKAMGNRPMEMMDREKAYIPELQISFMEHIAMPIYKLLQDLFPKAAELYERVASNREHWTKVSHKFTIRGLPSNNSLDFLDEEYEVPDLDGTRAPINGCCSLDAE

[8] = tested on: isolated human peripheral blood monocytes, eosinophils and T cells; settings: cited from earlier work
[9] = target: [3H]-rolipram binding to rat brain; settings: read-out: IC50 for inhibition of [3H]-rolipram binding to rat brain; cited from earlier work
[10] = in vivo; cited from earlier work; remark: listed apart in the source
[11] = target: PDEVIIIA (Homo sapiens, UniProt O60658); settings: cited from earlier work
PDEVIIIA, sequence (O60658 whole entry): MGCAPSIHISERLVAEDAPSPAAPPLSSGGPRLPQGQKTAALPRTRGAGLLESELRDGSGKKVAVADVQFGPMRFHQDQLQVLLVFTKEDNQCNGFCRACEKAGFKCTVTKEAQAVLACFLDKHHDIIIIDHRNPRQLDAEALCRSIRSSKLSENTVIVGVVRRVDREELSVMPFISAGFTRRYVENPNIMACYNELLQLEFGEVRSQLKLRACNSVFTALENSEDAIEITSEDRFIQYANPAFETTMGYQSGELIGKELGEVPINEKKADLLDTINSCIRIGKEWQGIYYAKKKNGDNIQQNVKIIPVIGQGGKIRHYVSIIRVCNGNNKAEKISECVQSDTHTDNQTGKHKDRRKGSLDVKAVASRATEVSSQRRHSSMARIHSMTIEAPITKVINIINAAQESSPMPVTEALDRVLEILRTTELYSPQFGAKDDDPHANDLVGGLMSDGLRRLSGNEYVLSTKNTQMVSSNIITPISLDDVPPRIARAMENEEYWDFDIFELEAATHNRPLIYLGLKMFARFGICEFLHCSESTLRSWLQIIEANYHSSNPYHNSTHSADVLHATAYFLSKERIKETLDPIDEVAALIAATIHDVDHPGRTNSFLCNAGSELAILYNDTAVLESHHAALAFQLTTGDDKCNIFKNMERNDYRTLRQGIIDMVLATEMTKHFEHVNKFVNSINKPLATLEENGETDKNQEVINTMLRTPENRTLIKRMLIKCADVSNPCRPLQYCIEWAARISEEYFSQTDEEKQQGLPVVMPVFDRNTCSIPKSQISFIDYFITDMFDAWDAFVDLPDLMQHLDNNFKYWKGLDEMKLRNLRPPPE

[12] = target: PDEIB (Homo sapiens, UniProt Q01064); settings: cited from earlier work
[13] = target: PDEXIA (Homo sapiens, UniProt Q9HCR9); settings: cited from earlier work
[14] = target: PDEIIIB (Homo sapiens, UniProt Q13370); settings: cited from earlier work
PDEIIIB, sequence (Q13370 whole entry): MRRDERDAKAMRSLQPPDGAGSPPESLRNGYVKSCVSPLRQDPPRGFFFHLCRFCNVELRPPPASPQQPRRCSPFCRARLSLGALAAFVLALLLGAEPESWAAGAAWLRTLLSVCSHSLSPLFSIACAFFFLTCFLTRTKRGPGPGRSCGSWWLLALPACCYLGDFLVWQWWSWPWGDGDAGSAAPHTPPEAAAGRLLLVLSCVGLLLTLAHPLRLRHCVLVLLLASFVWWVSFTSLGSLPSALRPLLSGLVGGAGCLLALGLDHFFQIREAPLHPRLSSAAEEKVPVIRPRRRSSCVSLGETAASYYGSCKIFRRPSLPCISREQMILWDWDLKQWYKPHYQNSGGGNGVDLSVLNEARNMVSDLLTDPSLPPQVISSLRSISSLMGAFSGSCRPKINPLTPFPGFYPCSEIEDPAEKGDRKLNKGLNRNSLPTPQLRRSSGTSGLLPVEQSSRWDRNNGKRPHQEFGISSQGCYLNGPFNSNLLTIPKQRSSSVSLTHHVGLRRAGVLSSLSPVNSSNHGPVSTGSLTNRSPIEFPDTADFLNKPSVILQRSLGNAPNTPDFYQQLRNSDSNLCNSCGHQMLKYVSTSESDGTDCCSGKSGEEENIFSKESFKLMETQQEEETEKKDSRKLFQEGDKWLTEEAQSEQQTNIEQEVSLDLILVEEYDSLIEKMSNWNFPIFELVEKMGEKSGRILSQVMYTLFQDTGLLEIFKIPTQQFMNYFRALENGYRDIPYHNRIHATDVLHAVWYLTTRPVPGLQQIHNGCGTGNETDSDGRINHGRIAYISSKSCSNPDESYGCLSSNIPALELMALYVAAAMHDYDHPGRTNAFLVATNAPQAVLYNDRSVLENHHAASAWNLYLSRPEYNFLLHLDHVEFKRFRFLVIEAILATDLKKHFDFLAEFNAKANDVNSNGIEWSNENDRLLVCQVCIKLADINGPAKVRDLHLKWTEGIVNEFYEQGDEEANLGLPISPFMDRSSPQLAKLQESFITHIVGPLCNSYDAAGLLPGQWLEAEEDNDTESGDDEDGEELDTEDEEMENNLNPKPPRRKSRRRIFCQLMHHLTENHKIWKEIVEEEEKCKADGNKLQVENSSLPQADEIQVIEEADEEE

[15] = target: PDEXA (Homo sapiens, UniProt Q9Y233); settings: cited from earlier work
PDEXA, sequence (Q9Y233 whole entry): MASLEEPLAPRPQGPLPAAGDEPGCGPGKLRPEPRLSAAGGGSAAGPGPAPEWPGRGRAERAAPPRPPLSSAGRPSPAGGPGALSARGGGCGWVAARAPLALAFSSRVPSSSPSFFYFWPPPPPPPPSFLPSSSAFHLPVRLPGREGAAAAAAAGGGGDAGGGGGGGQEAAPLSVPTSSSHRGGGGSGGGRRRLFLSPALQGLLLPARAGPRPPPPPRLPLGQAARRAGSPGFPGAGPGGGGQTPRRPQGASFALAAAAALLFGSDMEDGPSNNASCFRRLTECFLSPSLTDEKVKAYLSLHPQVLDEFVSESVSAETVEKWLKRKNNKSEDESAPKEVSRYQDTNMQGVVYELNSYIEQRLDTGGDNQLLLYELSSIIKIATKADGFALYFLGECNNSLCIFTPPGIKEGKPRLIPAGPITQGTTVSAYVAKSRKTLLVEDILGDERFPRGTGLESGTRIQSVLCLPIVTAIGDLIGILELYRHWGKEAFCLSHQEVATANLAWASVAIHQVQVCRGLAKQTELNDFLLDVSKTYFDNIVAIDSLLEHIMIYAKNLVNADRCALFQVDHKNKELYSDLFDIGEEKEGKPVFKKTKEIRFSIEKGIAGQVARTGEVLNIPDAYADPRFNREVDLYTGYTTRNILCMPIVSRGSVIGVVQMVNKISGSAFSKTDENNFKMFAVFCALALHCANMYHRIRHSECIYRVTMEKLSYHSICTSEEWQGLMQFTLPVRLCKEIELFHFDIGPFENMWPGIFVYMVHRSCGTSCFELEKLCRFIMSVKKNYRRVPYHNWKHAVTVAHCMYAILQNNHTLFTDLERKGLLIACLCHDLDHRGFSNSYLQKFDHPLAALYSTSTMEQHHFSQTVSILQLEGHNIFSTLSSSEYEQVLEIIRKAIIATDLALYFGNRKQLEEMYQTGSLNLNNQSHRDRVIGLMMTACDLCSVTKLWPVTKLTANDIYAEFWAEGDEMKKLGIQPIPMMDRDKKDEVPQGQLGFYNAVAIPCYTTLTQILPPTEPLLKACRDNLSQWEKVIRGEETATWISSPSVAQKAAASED

[16] = target: PDEVA (Homo sapiens, UniProt O76074); settings: cited from earlier work
[17] = target: PDEIXA (Homo sapiens, UniProt O76083); settings: cited from earlier work
PDEIXA, sequence (O76083 whole entry): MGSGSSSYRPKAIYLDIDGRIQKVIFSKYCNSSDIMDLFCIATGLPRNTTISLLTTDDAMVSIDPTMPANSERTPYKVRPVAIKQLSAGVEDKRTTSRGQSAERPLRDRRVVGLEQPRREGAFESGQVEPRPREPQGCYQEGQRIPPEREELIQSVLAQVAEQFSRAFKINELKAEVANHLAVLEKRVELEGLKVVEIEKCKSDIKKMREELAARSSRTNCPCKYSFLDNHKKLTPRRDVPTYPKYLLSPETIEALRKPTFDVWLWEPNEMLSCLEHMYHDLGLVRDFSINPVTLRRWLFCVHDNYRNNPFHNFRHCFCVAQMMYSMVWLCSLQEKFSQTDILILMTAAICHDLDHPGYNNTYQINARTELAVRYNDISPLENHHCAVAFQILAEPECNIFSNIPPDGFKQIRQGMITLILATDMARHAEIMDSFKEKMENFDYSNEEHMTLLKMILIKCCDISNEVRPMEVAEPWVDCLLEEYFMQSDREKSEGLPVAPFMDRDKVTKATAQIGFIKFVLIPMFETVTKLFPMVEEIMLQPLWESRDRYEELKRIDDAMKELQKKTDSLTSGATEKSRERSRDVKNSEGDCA

[18] = target: PDEIIA (Homo sapiens, UniProt O00408); settings: cited from earlier work
PDEIIA, sequence (O00408 whole entry): as the sequence (O00408 whole entry) above

[19] = target: PDEVIIB (Homo sapiens, UniProt Q9NP56); settings: cited from earlier work
PDEVIIB, sequence (Q9NP56 whole entry): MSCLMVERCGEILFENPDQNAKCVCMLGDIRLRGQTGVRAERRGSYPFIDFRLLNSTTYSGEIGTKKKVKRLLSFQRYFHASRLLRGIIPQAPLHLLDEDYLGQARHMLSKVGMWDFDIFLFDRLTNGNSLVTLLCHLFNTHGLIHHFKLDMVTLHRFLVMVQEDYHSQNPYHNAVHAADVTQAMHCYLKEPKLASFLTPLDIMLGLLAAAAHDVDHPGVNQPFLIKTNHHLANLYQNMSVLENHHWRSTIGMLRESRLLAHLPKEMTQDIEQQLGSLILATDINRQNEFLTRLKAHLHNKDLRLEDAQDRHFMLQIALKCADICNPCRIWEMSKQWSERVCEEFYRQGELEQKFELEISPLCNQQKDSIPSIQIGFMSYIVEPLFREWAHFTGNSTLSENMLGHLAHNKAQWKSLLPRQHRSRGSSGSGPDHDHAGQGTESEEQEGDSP

[20] = tested on: LNCaP prostate cancer cells; assay: MTT growth assay, A590 Abs end-point; format: cell-based; settings: Homo sapiens
Method: The growth data is expressed as a percentage of as a percentage of the “untreated” A590 Abs reading after 48 hours. The cells were assayed without the presence of androgens.
For the MTT growth assay LNCaP cells were grown at 37° C., 5% CO2, from a seeding value of 5000 cells. The final plating volume was 200 μl. The proliferation assay was obtained from Promega (Cat no G3582). The growth data were obtained during A590 Abs measurements. Measurements were conducted 48 hours after the initial plating. The cells were assayed without the presence of androgens. The significance of final A590 readings was calculated using T-Test of Triplicate Values only. […] The level of average inhibition of cell proliferation is around 50%, which would lead to an IC50 of the compound of ˜10 μM. […]

[21] = tested on: LNCaP prostate cancer cells; assay: Xcelligence assay, real time electrical impedance measurement of cell growth; format: cell-based; settings: Homo sapiens
Method: The growth data is expressed as a percentage of “untreated” slope value obtained during real time electrical impedance measurements. Measurements were conducted 12 hours after the initial plating down phase of the assay, i.e. 12 hours-60 hours—so as to examine proliferative potential and not morphological change. The cells were assayed without the presence of androgens.
For the Xcelligence assay LNCaP cells were grown at 37° C., 5% CO2, from a seeding value of 5000 cells. The final plating volume was 200 μl. E-Plate 96 well plates were obtained from Roche (Cat No 05232368001). The growth data were obtained during real time electrical impedance measurements. Measurements were conducted 12 hours after the initial plating down phase of the assay, i.e. 12 hours-60 hours—so as to examine proliferative potential and not morphological change. The cells were assayed without the presence of androgens. The significance of differential growth rates were calculated using T-Test of Triplicate Values only. […] The level of average inhibition of cell proliferation is around 50%, which would lead to an IC50 of the compound of ˜10 μM. Compared to an in vitro IC50 for 50% inhibition of PDE4 in vitro of ˜2 μm, an in vivo IC50 of 10 μM let us conclude that the proliferation inhibition effect is largely due to its PDE4 activity.

[22] = PDE4 inhibitors, target not given, read-out: IC 50 (Table of Inhibitors)

In the case of `COc1ccc(C2CNC(=O)NC2)cc1O[C@H]1C[C@@H]2CC[C@H]1C2` [CP80633], the “anti-inflammatory and bronchodilatory effects” value [1] is listed as “anti-inflammatory and bronchodilatory effects in vivo”, the IC50 [2, 22] is listed as 1.9 µM and the IC50 [3] is listed as greater than 100 µM. For the same compound, the IC50 [4] was greater than 100 µM, the IC50 [5] was greater than 100 µM and the IC50 [6] was 1.9 µM. The PDE4 isozyme selectivity [6] was “no significant PDE4 isozyme selectivity”, the IC50 [7] was greater than 100 µM and the “hydrolysis of cAMP in blood cells” value [8] was “inhibits hydrolysis of cAMP”.
For `CCCn1c(=O)c(C)cn2nc(N)nc12` [ICI63197], the IC50 [2, 22] is given as 0.035 µM and the IC50 [9] is given as 0.035 µM.
In the case of `CCc1ccc2c(-c3cccc(Cl)c3)nc(=O)n(CC)c2n1` [YM976], the IC50 ([2]; read-out: IC50, PDE4) is given as 0.0022 µM and the emetogenic activity [10] is given as “low emetogenic activity”.
In the case of `CCOC(=O)c1c(C)nn(-c2cccc([N+](=O)[O-])c2)c1C` [Phosphodiesterase 4 Inhibitor], the IC50 [2, 22] is given as 0.033 µM, the IC50 [11] is given as greater than 30 µM and the IC50 [12] is given as greater than 30 µM. The IC50 [13] was greater than 30 µM, the IC50 [14] was greater than 30 µM and the IC50 [15] was 6.9 µM. For the same compound, the IC50 [16] was greater than 30 µM, the IC50 [17] was greater than 30 µM and the IC50 [18] was greater than 30 µM. For the same compound, the IC50 [19] was greater than 30 µM.
For `COc1ccc(C2CNC(=O)C2)cc1OC1CCCC1` (stereo not drawn) [Rolipram], the IC50 [2, 22] is given as 1 µM, the IC50 ([2]; in vitro, read-out: in vitro IC50 for 50% inhibition of PDE4) is given as roughly 2 µM and the IC50 ([2]; read-out: IC50, PDE4) is given as 2 µM. For the same compound, the inhibition at 10 µM ([20]; 10 μM, 48 hours, without androgens, p<0.01, read-out: level of average inhibition of cell proliferation) was roughly 50%, the IC50 ([20]; end-point growth, concluded from 50% inhibition at 10 μM, read-out: IC50 of cell proliferation inhibition) was roughly 10 µM and the inhibition at 10 µM ([21]; 10 uM, 12-60 hours, without androgens, p<0.01, read-out: level of average inhibition of cell proliferation) was roughly 50%. It also gave an IC50 ([21]; real-time growth, concluded from 50% inhibition at 10 uM, read-out: IC50 of cell proliferation inhibition) of roughly 10 µM.
